101 compounds from PubChem BioAssay AID1117361 (Southern Research Institute, 2015) can be followed below.

Each structure is given as a SMILES string. pIC50: −log10 of the molar value.

As usually defined, the pIC50 is the negative decadic logarithm of the IC50, by convention in mol/L.

This experiment deals with Protein Tat (Human immunodeficiency virus type 1 group M subtype B (isolate HXB2)) (UniProt P04608). Briefly: HIV-1 Tat–TAR interaction blockers – biochemical, fluorescence polarization, FAM-labeled TAR RNA, counter-screen for Vif-APOBEC3G degradation inhibitor project, dose response (AID 1117361). Conditions: Tat-TAR RNA binding.
Sequence of Protein Tat (Human immunodeficiency virus type 1 group M subtype B (isolate HXB2)) (P04608 whole entry, looked up): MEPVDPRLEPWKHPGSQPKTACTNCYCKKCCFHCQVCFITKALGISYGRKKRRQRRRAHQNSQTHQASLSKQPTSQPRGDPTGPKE
With `C=C(C)C(=O)Nc1cccc(C2=NOC3(C2)C[C@@H](C(N)=O)N(C(=O)c2cc([N+](=O)[O-])cc([N+](=O)[O-])c2)C3)c1` (stereo partly specified), the pIC50 was 4.28.
Then `O=S(=O)(Nc1nccs1)c1ccc(Nc2nnc(-c3ccccc3)c3ccccc23)cc1`, with 4.32; and `O=C(CSc1nc2ccccc2n1CCc1ccccc1)c1ccc(O)c(O)c1`, with 5.05.
Then `C=CC(=O)N1C/C(=C/c2ccc(F)cc2)C(=O)/C(=C\c2ccc(F)cc2)C1`, with 4.05; and `Fc1ccccc1/C=C1\CCCC2=C1Nc1ncnn1C2c1ccccc1F` (stereo unspecified), with 4.62.
Then `CO[C@H]1C=CO[C@@]2(C)Oc3c(C)c(O)c4c(O)c(c(C=NN5CCN(C)CC5)c(O)c4c3C2=O)NC(=O)C(C)=CC=C[C@H](C)[C@H](O)[C@@H](C)[C@@H](O)[C@@H](C)[C@H](OC(C)=O)[C@@H]1C`, with 4.95; and `O=C1CCCC/C1=C/Nc1ccc2c(c1)OCO2`, with 4.38.
Take `COc1cccc(NC(=O)CSc2nnc(-c3ccco3)c(-c3ccco3)n2)c1`: the pIC50 was 4.16.
With `COc1cc(C2C(C#N)=C(N)N(c3cccnc3)C3=C2C(=O)CCC3)ccc1O` (stereo unspecified) the figure was 4.36; with `CN(C(=O)COC(=O)c1cc(-c2ccco2)nc2ccccc12)C1CCS(=O)(=O)C1` (stereo unspecified), 5.20.
With `CC(CNc1ccccc1O)C(=O)O` (stereo unspecified) the figure was 4.49; with `Cc1cc(-c2n[nH]c(=S)n2/N=C/C=C/c2ccco2)n[nH]1`, 4.73; with `O=C(COC(=O)/C=C/c1ccco1)Nc1ncc(C(F)(F)F)cc1Cl`, 4.70.
Then `C=CCNc1nc2ccccc2nc1NS(=O)(=O)c1cccs1`, with 4.35; and `COC(=O)CSc1nnc(CNC(=O)Cc2ccccc2)n1C`, with 5.84; and `O/C=c1\ccc2cccc3nc(C(F)(F)F)nc1c23`, with 5.54.
Turning to `O=C(NCc1ccccn1)c1coc(=O)c(Br)c1`, the pIC50 is 4.05.
With `CC(=O)c1ccc2c(c1)C1C=CCC1C(c1ccncc1)N2` (stereo unspecified) the figure was 4.44; with `O/N=C1\CCC\C1=C/c1ccco1`, 4.57; with `Cc1ccc(N(CC(=O)NCCSCc2ccco2)S(=O)(=O)c2ccc(F)cc2)cc1`, 4.20.
Take `CC1CC(=O)c2c(cc3c(-c4c(O)cc(O)c5c(O)c6c(cc45)OC(C)CC6=O)c(O)cc(O)c3c2O)O1` (stereo unspecified): the pIC50 is 5.12.
Then `Cc1ccc(C2SCC(=O)N2Cc2cn3ccsc3n2)o1` (stereo unspecified), with 4.16; and `CCc1c(C)sc(NC(=O)c2cc(-c3ccco3)on2)c1C#N`, with 4.28.
With `CCOc1ccc2[nH]c(=O)c(CN(Cc3nnnn3Cc3ccco3)C3CCCCC3)cc2c1` the figure was 4.60; with `C/C(=C\C(=O)c1ccc(C)cc1)Nc1cccc(O)c1`, 4.98; with `CCOc1cccc(=O)c2c(C)n(Cc3ccco3)c(C)c12`, 5.53.
With `C=CCn1c(COc2ccc(F)cc2)nnc1SCC(=O)NC(=O)NCc1ccco1` the figure was 4.03; with `O=C(O)/C(=C/c1ccco1)NC(=O)c1ccccc1`, 4.81.
In the case of `O=C1/C(=C\c2ccco2)NC(=S)N1c1ccccc1`, the pIC50 was 4.79.
With `CCOC(=O)c1c(N)sc(=S)c2c1CCC2` the figure was 4.28; with `O=C1/C(=C/c2ccco2)Oc2c1ccc(O)c2CN1CCCCC1`, 5.37.
With `O=[N+]([O-])c1cc(CN2CCOCC2)c2cccnc2c1O` the figure was 4.80; with `Cc1nc2ncccn2c1-c1csc(NCc2ccco2)n1`, 5.22; with `Cc1ccc(NC(=O)CN2C(=O)N/C(=C/c3ccco3)C2=O)cc1`, 4.44.
With `O=C(COC(=O)c1ccccc1)Nc1ncc([N+](=O)[O-])s1` the figure was 4.69; with `Cc1nc2cc(-c3ccsc3-n3c(C)ccc3C)[nH]n2c(=O)c1Cl`, 5.66; with `O=C1S/C(=C\C=C\c2ccco2)C(=O)N1c1ccc(O)cc1`, 5.70.
For the compound `CCCn1c(=N)n(CC(O)c2ccco2)c2ccccc21` (stereo unspecified), the pIC50 was 4.11.
Then `Cc1oc(C)c2c(=O)ccc3c(c12)OC(N)=C(C#N)C3c1ccccc1` (stereo unspecified), with 4.09; and `Nc1ccc(Nc2ccccc2)c(S(=O)(=O)O)c1`, with 4.50; and `O=C(NCc1ccccn1)c1ccc2nc(-c3ccco3)c(-c3ccco3)nc2c1`, with 5.32.
On to `COc1cc(-c2cccs2)cc(=O)c2c(C)oc(C)c12`, for which the pIC50 was 4.64.
Then `c1ccc2c(c1)CCCN2Cc1nnc2n1CCCCC2`, with 5.37; and `Clc1ccc(-c2cn3cccnc3n2)cc1Cl`, with 4.04.
Then `Cc1cccc(-n2c(Cc3cc(=O)[nH]c(=O)[nH]3)nnc2SCC(=O)NCC2CCCO2)c1` (stereo unspecified), with 4.23; and `COc1ccc(C2=CC(c3ccc(Cl)cc3)n3cnnc3N2)cc1OC` (stereo unspecified), with 5.21.
With `Cc1cc(C)cc(NC(=O)CSc2nc3c(c(=O)n2C)SC(C)C3)c1` (stereo unspecified) the figure was 4.24; with `Cc1ccc(/C=C2\SC(=S)N(c3cccnc3)C2=O)o1`, 5.26.
Consider `CC(=O)Nc1ccc(S(=O)(=O)NCCSCc2ccco2)cc1`, for which the pIC50 is 4.18.
With `Cc1ccc(/C=C/C(=O)Nc2ccc([N+](=O)[O-])c(NC(=O)/C=C/c3ccc(C)o3)c2)o1` the figure was 5.14; with `Cc1cc(/C=N/Nc2ccc([N+](=O)[O-])cn2)c(C)n1-c1ccc(C(=O)O)cc1`, 5.25; with `Cc1cc(C)nc(N/N=C/C2=C(N3CCOCC3)C(=C\c3ccc(Cl)cc3)/CC2)n1`, 4.14.
With `CC1CCC/C(=C\Nc2ccc(C(=O)O)c(O)c2)C1=O` (stereo unspecified) the figure was 5.27; with `O=C(NN1C(=O)/C(=C/C=C/c2ccco2)SC1=S)c1ccncc1`, 5.57; with `Cc1ccccc1NC(=O)c1c(C)[nH]c(=S)c(C#N)c1-c1ccco1`, 5.05.
Then `CC(C)n1c(=NC(=O)c2ccco2)c(C#N)cc2c(=O)n3ccccc3cc21`, with 4.02.
With `Cc1ccc(Cl)cc1N1CCN(C(=O)COc2ccc3c(c2)CCC3)CC1`, the pIC50 is 4.24.
With `Oc1cc2c(cc1O)C1c3ccc(O)c(O)c3OCC1(O)C2` (stereo unspecified) the figure was 4.93.
Then `O=C(Nc1ccn(-c2ccccc2)n1)c1ccccc1Br`, with 4.52; and `CCOC(=O)c1cc2cc(F)ccc2nc1C`, with 5.20; and `O=C(Cc1cc(=O)[nH][nH]1)N/N=C/C=C/c1ccccc1`, with 4.37.
In the case of `O=C1C=C(N2CC2)c2ccccc2C1=O`, the pIC50 was 4.09.
Then `Cc1ccc(NC(=O)CN(C)C(=O)c2cc(-c3ccco3)nc3ccccc23)cc1`, with 4.16.
As for `Cc1cc(C)cc(Nc2ncc3c(n2)CC(c2ccco2)CC3=O)c1` (stereo unspecified), the negative-log IC50 (pIC50) was 4.37.
With `Oc1ccccc1/C=N/c1c(-c2ccco2)nc2ccccn12` the figure was 5.53; with `O=C(COc1ccccc1Cl)c1ccc[nH]1`, 4.83; with `O=c1ccc2c(-c3ccccc3S(=O)(=O)O)c3ccc(O)c(O)c3oc-2c1O`, 5.32.
Then `Brc1c(CSc2nnc(-c3ccco3)o2)nc2ccccn12`, with 4.62; and `N#Cc1c(-c2ccco2)cc(-c2ccccc2)[nH]c1=O`, with 5.30; and `CNc1cccccc1=S`, with 5.36.
Then `CC(=O)c1sc2nc(-c3ccco3)ccc2c1N`, with 5.33; and `CCOC(=O)Cc1cc(=O)n2[nH]c(C)cc2n1`, with 4.11.
For the compound `CSc1ccc(/C=N/Nc2cccc(C(=O)O)c2)cc1`, the pIC50 was 5.24.
On to `COc1ccc2nc3ccccc3nc2c1N`, for which the pIC50 was 4.09.
With `NN=C1C(Cl)=C(Cl)C(Cl)=C1Cl` the figure was 4.20; with `NS(=O)(=O)c1ccc(N/N=C/c2ccc(O)c(O)c2O)c([N+](=O)[O-])c1`, 5.13.
With `O=C1N=C(N2CCN(c3ccccc3)CC2)S/C1=C\c1ccco1` the figure was 4.93.
With `COC(=O)CCC(=O)OC1(C)C(=O)C2=CN(CCCOC(C)C)C(c3ccc(OC)cc3)=CC2=C(Br)C1=O` (stereo unspecified) the figure was 4.72.
Turning to `COc1cc2c(cc1N)-c1ccc(N)cc1C2`, the pIC50 was 5.60.
With `O=C1CCCC(O)=C1N=Nc1ccc(S(=O)(=O)N2CCOCC2)cc1` the figure was 4.42.
On to `CCCCCC#CCC#CCC#CCC#CCCCC(=O)O`, for which the pIC50 is 5.62.
With `O=C(N/N=C/C=C/c1ccco1)c1ccncc1` the figure was 4.99.
With `O=C1C(=Cc2ccco2)CCCC1=Cc1ccco1` the figure was 4.19; with `CC(=O)c1ccc(NC(=O)c2ccc3nc(-c4ccco4)c(-c4ccco4)nc3c2)cc1`, 5.11.
With `CCOC(=O)C1=C(C)N=C2SC(C(=O)OC)=CC(=O)N2C1c1cc(OC)c(OC)c(OC)c1` (stereo unspecified) the figure was 4.50; with `CCN(CC(=O)Nc1c(C(=O)OC)[nH]c2ccccc12)c1ccc2c(c1)OCO2`, 4.85.
With `CC(C)C(C(=O)O)N1C(=O)/C(=C/C=C/c2ccco2)SC1=S` (stereo unspecified), the pIC50 is 5.85.
Then `CC(C)Cn1c(SCC(=O)NC(=O)Nc2ccc3c(c2)OCCO3)nc2ccccc2c1=O`, with 5.79; and `CCn1c(SC(C)C(=O)O)nc2sc3c(c2c1=O)CCC3` (stereo unspecified), with 4.15.
Consider `Cn1cccc1/C=C1\CCC/C(=C\c2cccn2C)C1=O`, for which the pIC50 is 4.77.
As for `Oc1ccc(NCc2cccc(OCc3ccccc3)c2)cc1`, the pIC50 was 4.18.
Then `O=C1CCC/C(=N\NC(=O)c2ccc(COc3cccc4cccnc34)cc2)C1`, with 4.08.
Then `Cc1cc(C)c(C(=O)/C=C/c2ccco2)c(=O)[nH]1`, with 4.92; and `COC(=O)CCC(=O)OC1(C)C(=O)C2=COC(c3ccc(OC)cc3)=CC2=C(Br)C1=O` (stereo unspecified), with 4.89.
Then `O=C(NC1CC1)c1cc(-c2ccco2)nc2ccccc12`, with 5.03; and `CC1(OC(=O)C2CCCC2)C(=O)C=C2C=C(c3ccsc3)OC=C2C1=O` (stereo unspecified), with 4.34.
Take `COC(=O)CCC(=O)OC1(C)C(=O)C=C2C=C3CCCN3C=C2C1=O` (stereo unspecified): the pIC50 was 4.95.
With `CN(C)c1ccc(N2C(=O)CSC2=S)cc1` the figure was 4.26; with `Cc1cccc(NC(=S)NC(=O)/C=C/c2ccco2)c1`, 4.70; with `Cc1cccc(-n2c(Cc3cc(=O)[nH]c(=O)[nH]3)nnc2SC(C)C)c1`, 4.55.
Then `C(=C\c1ccco1)/C=N/n1cnnc1`, with 4.98.
